For 9 compounds, half-life and logD results are on record in ChEMBL document CHEMBL1122924 (J Med Chem, 1985).

Each structure is given as a SMILES string.

By half-life is commonly meant the time in which the quantity being followed falls by half. The logD is lipophilicity at a set pH, counting ionised and neutral species.

Data set [1] in a line: physchem. Conditions: pH 7.4.
A short description of data set [2]: physchem. To be noted: octanol/0.05 M phosphate buffer, pH 7.4.
Description: Compound was evaluated for apparent partition coefficient (log P) between octanol and 0.05 M phosphate buffer solution of pH 7.40

Consider `CC[C@H](C(=O)OCc1ccccc1)[C@H](CO)Cc1cncn1C`, for which the half-life in the data set “physchem [1]” amounted to 0.833 h. Besides, the logD in “physchem [2]” stood at 1.82.

For the compound `CC[C@H](C(=O)OCCc1ccccc1)[C@H](CO)Cc1cncn1C`, the half-life in “physchem [1]” was 3.78 h. This compound also had a logD in “physchem [2]” of 2.16.

`CCCCOC(=O)[C@@H](CC)[C@H](CO)Cc1cncn1C` returned a half-life in “physchem [1]” of 13.7 h. The same compound yielded a logD in the data set “physchem [2]” of 1.58.

Compound `CCCCCCOC(=O)[C@@H](CC)[C@H](CO)Cc1cncn1C` had a half-life in the data set “physchem [1]” of 18.4 h. The compound further had a log distribution coefficient (logD) in “physchem [2]” of 2.56.

Regarding `CCOC(=O)[C@@H](CC)[C@H](CO)Cc1cncn1C`, the half-life in “physchem [1]” came out at 8.5 h. The compound also gave a logD in the data set “physchem [2]” of 0.58.

In “physchem [1]”, `CC[C@H](C(=O)OCc1ccc(C)cc1)[C@H](CO)Cc1cncn1C` had a half-life of 1.28 h. Moreover, in “physchem [2]”, the logD was found to be 2.31.

Regarding `CC[C@H](C(=O)OC(C)c1ccccc1)[C@H](CO)Cc1cncn1C` (stereo partly drawn), the half-life in the data set “physchem [1]” came out at 7.92 h. In “physchem [2]”, this compound gave a logD of 2.08.

As for `CC[C@H](C(=O)OCc1ccc(Cl)cc1)[C@H](CO)Cc1cncn1C`, the half-life in the data set “physchem [1]” is 0.5 h. Also, in “physchem [2]”, the logD was 2.54.

In the case of `CC[C@H](C(=O)OCc1ccccc1C)[C@H](CO)Cc1cncn1C`, the half-life in the data set “physchem [1]” worked out at 2.32 h. Besides, the logD in “physchem [2]” was found to be 2.27.
